According to BigSolDB 2.1:

Cn1c(=O)c2[nH]cnc2n(C)c1=O
Conditions | solubility (mole fraction)
in ethanol, 309.4 K | 0.0008
in ethanol, 313 K | 0.0013
in ethanol, 318.6 K | 0.002
in ethanol, 321.3 K | 0.0027
in ethanol, 325.2 K | 0.0036
in ethanol, 332.8 K | 0.005
in ethanol, 340.1 K | 0.0083
in ethanol, 345.3 K | 0.0123
in n-octanol, 322.3 K | 0.001
in n-octanol, 327.2 K | 0.0013
in n-octanol, 330.2 K | 0.0017
in n-octanol, 336.7 K | 0.0025
in n-octanol, 337.5 K | 0.0027
in n-octanol, 343.8 K | 0.0045
in n-octanol, 352.1 K | 0.0063
in n-octanol, 355.3 K | 0.0069
in n-octanol, 364.5 K | 0.008
in water, 308.5 K | 0.0004
in water, 310.6 K | 0.0005
in water, 314.5 K | 0.0007
in water, 316.7 K | 0.0009
in water, 319.3 K | 0.001
in water, 323.4 K | 0.0012
in water, 326.2 K | 0.0018
in water, 333.3 K | 0.0026
in water, 337.6 K | 0.0039
in water, 342.6 K | 0.0064
in water, 343.1 K | 0.007

Cn1cnc2c1c(=O)[nH]c(=O)n2C
solubility (mole fraction)
Conditions | 293.15 K | 298.15 K | 303.15 K | 308.15 K | 313.15 K | 318.15 K
in ethanol | 1.53e-05 | 2.33e-05 | 3.15e-05 | 3.85e-05 | 5.49e-05 | 6.34e-05
in n-octanol | 0.000214 | 0.000433 | – | 0.00061 | – | 0.000824
in water | 0.001 | 0.00101 | 0.00101 | 0.00103 | 0.00104 | 0.00104

Cn1c(=O)c2c(ncn2CCO)n(C)c1=O
Conditions | solubility (mole fraction)
in ethanol, 313.9 K | 0.001
in ethanol, 321.2 K | 0.0016
in ethanol, 325.7 K | 0.0023
in ethanol, 327.4 K | 0.0029
in ethanol, 332.5 K | 0.004
in ethanol, 336.8 K | 0.0055
in ethanol, 339.1 K | 0.0065
in ethanol, 339.7 K | 0.0068
in ethanol, 342.4 K | 0.0077
in ethanol, 343.8 K | 0.0081
in ethanol, 344.9 K | 0.0086
in n-octanol, 323.2 K | 0.0026
in n-octanol, 333.2 K | 0.0046
in n-octanol, 335.2 K | 0.006
in n-octanol, 338.4 K | 0.0074
in n-octanol, 343.5 K | 0.0095
in n-octanol, 351.8 K | 0.0149
in n-octanol, 355.5 K | 0.02
in n-octanol, 365.2 K | 0.0259
in water, 290.7 K | 0.0027
in water, 300.9 K | 0.0039
in water, 301.6 K | 0.0041
in water, 303.4 K | 0.0042
in water, 304.6 K | 0.0048
in water, 306 K | 0.0052
in water, 312.5 K | 0.0067
in water, 312.8 K | 0.0067
in water, 316.2 K | 0.0086
in water, 317.9 K | 0.0099
in water, 320.5 K | 0.0119
in water, 322.5 K | 0.0133
in water, 324.9 K | 0.0155
in water, 330.8 K | 0.0204
in water, 334.7 K | 0.026
in water, 342 K | 0.0447
in water, 347.3 K | 0.0623
in water, 348.4 K | 0.0808
